Assay results from US11918624B2, “Therapeutic composition for use in the treatment of COVID-19 and other cytokine storm associated disorders” (priority 2020, dated 2024).
Ends that are not written are not given here.

Key:
[1] = target: T1, C5a receptor (Homo sapiens, UniProt P21730); experiment: C5a-induced Ca++ influx in C5a receptor-expressing U937 cells; assay type: cell-based
T1 construct: U937 cells bearing the C5a receptor were preincubated with this peptide; endogenous in cells; host or cells: U937 cells, cAMP stimulated
T1 sequence (P21730 1-350): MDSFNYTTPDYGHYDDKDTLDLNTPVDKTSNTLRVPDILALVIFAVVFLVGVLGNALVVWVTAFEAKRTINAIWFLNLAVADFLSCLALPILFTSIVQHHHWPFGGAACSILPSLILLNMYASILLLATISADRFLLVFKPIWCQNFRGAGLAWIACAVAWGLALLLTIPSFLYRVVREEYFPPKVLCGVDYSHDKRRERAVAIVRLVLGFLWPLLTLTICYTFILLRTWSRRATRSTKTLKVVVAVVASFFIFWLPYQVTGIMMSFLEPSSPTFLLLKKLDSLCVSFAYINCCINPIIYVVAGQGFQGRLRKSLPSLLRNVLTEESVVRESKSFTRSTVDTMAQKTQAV
Procedure: It was shown by its ability to inhibit Ca^++ influx induced by C5a anaphylatoxin in C5a receptor-expressing (cAMP stimulated) U937 cells.
(§1) Particularly, it is shown the IC50 achieved at pM levels. […] In addition, in the membrane bound state the peptide remains active for at least 12 hours. Therefore, it is a very effective C5aR inhibitor.

[2] = target: T2, C5aR (Homo sapiens, UniProt P21730); experiment: persistence of activity of erythrocyte membrane bound peptide; conditions: erythrocyte membrane bound state
T2 construct: endogenous in cells; host or cells: 'C5aR bearing cells', not specified
T2 sequence (P21730 1-350): T1 sequence (P21730 1-350)
Procedure: The activity in vivo, in rat and pig models, is shown in the examples below. Further, it has been shown that the peptide can be delivered in vivo very safely, even at very high concentration. […] In addition, in the membrane bound state, the peptide remains active for at least 12 hours. Therefore, it is a very effective C5aR inhibitor.
as §1

[3] = test system: guinea pig complement; experiment: antibody dependent complement mediated hemolysis assay; assay type: biochemical; conditions: 1 ug/mL peptide added to guinea pig complement, titrated against turkey erythrocytes with hemolysin
Procedure: The peptides were synthesized by Fmoc solid phase method, purified on C18 reversa phase chromatography, tested by adding each peptide to and screened for complement inhibitory activity, in a simple antibody dependent hemolysis system in which 1 ug/mL of peptides were added to guinea pig complement, and were titrated against turkey erythrocytes mixed with hemolysin, a complement fixing anti-erythrocyte antibody solution. In the presence the peptides, the hemolythic activity of the complement was reduced, and the corresponding dilutions was determined. The inhibition was estimated by a formula: Inhibition (%)=100−(dilution of sample titer*100)/dilution of control

[4] = test system: C5a anaphylatoxin; experiment: binding of AHB peptide to antisense peptides derived from C5a; conditions: C5a amino acids 37-43 and 61-74
[5] = target: T3, endothelin receptor (Canis lupus familiaris, UniProt Q5KSU9); experiment: iv ET-1 injection in dogs pretreated with peptide; assay type: in vivo
T3 construct: from tissue; host or cells: whole animal (dog), in vivo
T3 sequence (Q5KSU9 21-426): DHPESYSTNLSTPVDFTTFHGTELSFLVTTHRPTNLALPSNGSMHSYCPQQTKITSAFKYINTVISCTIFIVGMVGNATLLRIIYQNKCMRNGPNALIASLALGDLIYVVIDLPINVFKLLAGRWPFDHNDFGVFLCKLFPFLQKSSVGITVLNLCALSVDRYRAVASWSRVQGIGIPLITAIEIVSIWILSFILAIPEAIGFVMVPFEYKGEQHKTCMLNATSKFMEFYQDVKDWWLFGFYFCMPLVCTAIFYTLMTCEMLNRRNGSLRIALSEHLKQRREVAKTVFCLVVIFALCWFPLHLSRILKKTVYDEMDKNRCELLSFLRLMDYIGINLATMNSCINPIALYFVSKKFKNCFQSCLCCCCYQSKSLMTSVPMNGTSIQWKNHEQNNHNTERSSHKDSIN
Procedure: One of the peptides was subsequently tested in dogs and confirmed its biological effect in vivo. […] The elevated ET-1 level was marked with profound changes in circulation (details to be published elsewhere). However, pretreatment of dogs with 100 ug/kg ETR-P1/fl peptide removed the cardiovascular effects of injected ET-1 peptide from the circulation within 10 min and the measured endothelin level become normal. […] It is known in the previous art and has been patented and the patent expired.

Substance: (LRTWSRRATRSTKTLKVV)8K4K2KV [PR226MAP]
- concentration of complete inhibition of C5a triggered Ca influx ([1]; FIG. 2): 200 pM
- concentration level at which C5a triggered Ca influx is inhibited ([1]; serial dilution): femtomolar concentration levels
- IC50 ([1]; serial dilution, FIG. 2, read-out: IC50 of C5a triggered Ca influx): 1 pM
- time the peptide remains active [2]: at least 12 hours

Substance: APNHLLEVRV [AP1314, APNHLLEVRV]
- Hemolysis inhibition (% of maximum) [3]: >80%

Substance: DDLKQLANGVDRYI [DDL1619, DDLKQLANGVDRYI]
- Hemolysis inhibition (% of maximum) [3]: >80%

Substance: DYGHYDDKDTLDLNTPVD (Complement factor 5a receptor targeting inhibitor DYG2094) [PR10]
- inhibition of C5a receptor activity / C5a-induced Ca++ influx [1]: did not inhibit the receptor activity
- binding to antisense peptides derived from C5a anaphylatoxin [4]: bound to two of its corresponding antisense peptides

Substance: ERLGREGVQ [ERL1041, ERLGREGVQ]
- Hemolysis inhibition (% of maximum) [3]: >20-40%

Substance: ESASLRSEETKV [ESA1331, ESASLRSEETKV]
- Hemolysis inhibition (% of maximum) [3]: >20-40%

Substance: GQWKIRAYYENS [GQW1513, GQWKIRAYYENS]
- Hemolysis inhibition (% of maximum) [3]: ≤20%

Substance: HWPFGGAACSILPSLI (Complement factor 5a receptor targeting inhibitor HWP1667) [PR101]
- inhibition of C5a receptor activity / C5a-induced Ca++ influx [1]: did not affect the C5a-induced Ca^++ influx

Substance: IAVHYLDETEQW [IAV1501, IAVHYLDETEQW]
- Hemolysis inhibition (% of maximum) [3]: ≤20%

Substance: KRPQDAKNT [KRP1057, KRPQDAKNT]
- Hemolysis inhibition (% of maximum) [3]: >20-40%

Substance: KYKHSVVKKSDGA (PL12-AHB peptide derived from C5a anaphylatoxin)
- inhibition of C5a receptor activity / C5a-induced Ca++ influx [1]: not able to inhibit

Substance: LHLSVRTLELRP [LHL1431, LHLSVRTLELRP]
- Hemolysis inhibition (% of maximum) [3]: >40-60%

Substance: LNCQRYYGGGGYST [LNC1538, LNCQRYYGGGGYST]
- Hemolysis inhibition (% of maximum) [3]: >20-40%

Substance: LNLCALSVDRYRAVASWSRVI (Endothelin A receptor targeting inhibitor LNL2390) [ETR-P1/fl]
- measured endothelin level after injected ET-1 ([5]; dogs, pretreatment 100 ug/kg): become normal
- time to removal of cardiovascular effects of injected ET-1 ([5]; dogs, pretreatment 100 ug/kg, iv ET-1): ≤ 10 min
- decrease of normal baseline level of ET peptide in plasma ([5]; dogs, transient): 30-50%
- increase of ET-1 binding capacity of the endothelin receptor ([5]; receptor frozen in inactive conformation): 4 times

Substance: LRANISHKDMQLGR (PL61-AHB peptide derived from C5a anaphylatoxin)
- inhibition of C5a receptor activity / C5a-induced Ca++ influx [1]: not able to inhibit

Substance: LRLPYVVREQL [LRL1384, LRLPYVVREQL]
- Hemolysis inhibition (% of maximum) [3]: ≤20%

Substance: LRTWSRRATRSTKTLKVV (Complement factor 5a receptor targeting inhibitor LRT2463) [PR226]
- biphasic activity on C5a receptor [1]: inhibitor at high concentration and activator as low concentration

Substance: LSRKVLLDGV [LSR1099, LSRKVLLDGV]
- Hemolysis inhibition (% of maximum) [3]: >20-40%

Substance: LTAYVVKVFSLA [LTA1309, LTAYVVKVFSLA]
- Hemolysis inhibition (% of maximum) [3]: >80%

Substance: NIFLKDSITTWE [NIF1464, NIFLKDSITTWE]
- Hemolysis inhibition (% of maximum) [3]: >40-60%

Substance: QALPYSTVGNSNL [QAL1363, QALPYSTVGNSNL]
- Hemolysis inhibition (% of maximum) [3]: >40-60%

Substance: QKKIEEIAAKYKHS (PL3-AHB peptide derived from C5a anaphylatoxin)
- inhibition of C5a receptor activity / C5a-induced Ca++ influx [1]: not able to inhibit

Substance: QRSYTVAIA [QRS1008, QRSYTVAIA]
- Hemolysis inhibition (% of maximum) [3]: >40-60%

Substance: RAARISLGPRSIKAFTE (PL37-AHB peptide derived from C5a anaphylatoxin)
- inhibition of C5a receptor activity / C5a-induced Ca++ influx [1]: not able to inhibit

Substance: SDAGLTFTSS [SDA984, SDAGLTFTSS]
- Hemolysis inhibition (% of maximum) [3]: >80%

Substance: SDKKGICVADPFEVT [SDK1606, SDKKGICVADPFEVT]
- Hemolysis inhibition (% of maximum) [3]: >80%

Substance: TAYVVKVFSLAVN [TAY1409, TAYVVKVFSLAVN]
- Hemolysis inhibition (% of maximum) [3]: ≤20%

Substance: VQAERSGIPIVTSPYQI [VQA1857, VQAERSGIPIVTSPYQI]
- Hemolysis inhibition (% of maximum) [3]: >80%
